Test: xn = mol fraction of the nth substance listed
Conditions: 298.15 K, 101 kPa, Liquid, Vibrating tube method

CCC(C)Cl (stereo not drawn) [2-chlorobutane] + CC(C)CO
Conditions	mass density [kg/m3]
x1 = 0.0579	801.82
x1 = 0.1152	805.77
x1 = 0.2274	813.51
x1 = 0.3166	819.67
x1 = 0.4235	827.01
x1 = 0.4896	831.53
x1 = 0.5564	836.12
x1 = 0.6097	839.79
x1 = 0.6872	845.08
x1 = 0.7523	849.59
x1 = 0.809	853.54
x1 = 0.8487	856.33
x1 = 0.8975	859.77
x1 = 0.9293	862.05
x1 = 0.9638	864.55
x1 = 1	867.21

CCC(C)Cl (stereo not drawn) [2-chlorobutane] + CCCCOC(C)=O
Conditions	mass density [kg/m3]
x1 = 0.0787	875.55
x1 = 0.1618	874.83
x1 = 0.233	874.2
x1 = 0.325	873.36
x1 = 0.3861	872.8
x1 = 0.4512	872.2
x1 = 0.506	871.7
x1 = 0.5902	870.94
x1 = 0.6656	870.27
x1 = 0.7352	869.65
x1 = 0.7862	869.19
x1 = 0.8516	868.6
x1 = 0.8961	868.19
x1 = 0.9458	867.73
x1 = 1	867.21

CC(C)CO [2-methyl-1-propanol] + CCC(C)Cl
Conditions	mass density [kg/m3]
x2 = 0	797.82

CC(C)CO [2-methyl-1-propanol] + CCCCOC(C)=O
Conditions	mass density [kg/m3]
x2 = 0	797.82

CCCCOC(C)=O [butyl ethanoate] + CC(C)CO
Conditions	mass density [kg/m3]
x1 = 0.0589	802.41
x1 = 0.1065	806.12
x1 = 0.1907	812.7
x1 = 0.272	819.03
x1 = 0.3894	828.2
x1 = 0.4427	832.34
x1 = 0.5277	838.96
x1 = 0.607	845.14
x1 = 0.6829	851.07
x1 = 0.7405	855.58
x1 = 0.8166	861.57
x1 = 0.87	865.79
x1 = 0.9312	870.67
x1 = 1	876.2

CCCCOC(C)=O [butyl ethanoate] + CCC(C)Cl
Conditions	mass density [kg/m3]
x2 = 0	876.2

— the NIST ThermoML archive (doi:10.1016/j.jct.2011.05.017)
